From PubChem BioAssay AID328 (DTP/NCI, 2004)
Values joined by “and” are separate entries in the source; they are usually repeats but may differ in a detail not shown here. Identical values can stand only once. Inconclusive results and toxic doses are left out. How the source made its calls: active means survival T/C of 150% or more; inactive means T/C below 125% in these data.

System: BDF1 mice, P388 leukemia ip, median survival T/C
Test: NCI In Vivo Anticancer Drug Screen. Data for tumor model P388 Leukemia (intraperitoneal) in B6D2F1 (BDF1) mice
Conditions: endpoint: median survival time, higher = longer survival
Procedure, shortened: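 Antitumour effect was judged in vivo: survival in drug-treated mice, normalised to that of vehicle-dosed controls, gives the reported T/C.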

[1] = dose: 25.0 mg/kg/injection, schedule: Q01DX009 (ip), vehicle: Klucel (hydroxypropylcellulose) (HPC)
[2] = dose: 50.0 mg/kg/injection, schedule: Q01DX009 (ip), vehicle: Klucel (hydroxypropylcellulose) (HPC)

Measured: T/C

COc1ccc2c(c1)CCC1C2CCC2(C)C(=O)OC(=O)C12 (centres undefined)
inactive: dose: 87.5 mg/kg/injection, schedule: Q01DX009 (sc), vehicle: steriod suspending solution 91 % of control | dose: 100.0 mg/kg/injection, schedule: Q04DX003 (sc), vehicle: steriod suspending solution 100 % of control | dose: 175.0 mg/kg/injection, schedule: Q01DX009 (sc), vehicle: steriod suspending solution 100 % of control | dose: 200.0 mg/kg/injection, schedule: Q04DX003 (sc), vehicle: steriod suspending solution 109 % of control | dose: 350.0 mg/kg/injection, schedule: Q01DX009 (sc), vehicle: steriod suspending solution 95 % of control | dose: 400.0 mg/kg/injection, schedule: Q04DX003 (sc), vehicle: steriod suspending solution 95 % of control

O=c1[nH]cc(I)cc1I
inactive: dose: 200.0 mg/kg/injection, schedule: Q04DX003 (ip), vehicle: saline with Tween-80 100 % of control | dose: 400.0 mg/kg/injection, schedule: Q04DX003 (ip), vehicle: saline with Tween-80 100 % of control

FC(F)(F)c1nnn[n-]1.[Au+].c1ccc([PH+](c2ccccc2)c2ccccc2)cc1
inactive: dose: 25.0 mg/kg/injection, schedule: Q01DX001 (ip), vehicle: saline with Tween-80 100 % of control | dose: 50.0 mg/kg/injection, schedule: Q01DX001 (ip), vehicle: saline with Tween-80 102 % of control

[Au].c1ccc(-c2nn[nH]n2)cc1.c1ccc(P(c2ccccc2)c2ccccc2)cc1
inactive: dose: 6.25 mg/kg/injection, schedule: Q01DX009 (ip), vehicle: saline with Tween-80 104 % of control | dose: 12.5 mg/kg/injection, schedule: Q01DX009 (ip), vehicle: saline with Tween-80 106 % of control | dose: 25.0 mg/kg/injection, schedule: Q01DX009 (ip), vehicle: saline with Tween-80 123 % of control

C=C1C(=O)OC2/C=C(\CO)C(OC(C)=O)CC(O)/C(C)=C/C(OC(=O)C(C)CC)C12 (centres undefined)
inactive: dose: 6.25 mg/kg/injection, schedule: Q01DX009 (ip), vehicle: Klucel (hydroxypropylcellulose) (HPC) 110 % of control | dose: 12.5 mg/kg/injection, schedule: Q01DX009 (ip), vehicle: Klucel (hydroxypropylcellulose) (HPC) 108 % of control | [1] 119 % of control | [2] 117 % of control

S=c1nc[nH]c2c1ncn2CN1CCOCC1
inactive: [1] 110 % of control

CCOC(=O)C(C(=O)OCC)C(=O)c1cc(-c2ccc(Cl)c(Cl)c2)nc2c(Cl)cc(Cl)cc12
inactive: [2] 100 % of control | dose: 200.0 mg/kg/injection, schedule: Q01DX009 (ip), vehicle: Klucel (hydroxypropylcellulose) (HPC) 91 % of control

O=C(/C=C\c1ccccc1)/C=C/c1ccccc1
inactive: dose: 100.0 mg/kg/injection, schedule: Q04DX003 (sc), vehicle: olive oil, sesame oil, peanut oil 100 % of control | dose: 200.0 mg/kg/injection, schedule: Q04DX003 (sc), vehicle: olive oil, sesame oil, peanut oil 100 % of control | dose: 400.0 mg/kg/injection, schedule: Q04DX003 (sc), vehicle: olive oil, sesame oil, peanut oil 100 % of control

COc1cc(NS(=O)(=O)c2ccccc2)ccc1C
inactive: [1] 100 % of control | [2] 100 % of control | dose: 100.0 mg/kg/injection, schedule: Q01DX009 (ip), vehicle: Klucel (hydroxypropylcellulose) (HPC) 89 % of control and 110 % of control | dose: 100.0 mg/kg/injection, schedule: Q04DX003 (ip), vehicle: Klucel (hydroxypropylcellulose) (HPC) 104 % of control | dose: 200.0 mg/kg/injection, schedule: Q04DX003 (ip), vehicle: Klucel (hydroxypropylcellulose) (HPC) 95 % of control | dose: 400.0 mg/kg/injection, schedule: Q04DX003 (ip), vehicle: Klucel (hydroxypropylcellulose) (HPC) 95 % of control

NCC=C1C2CC3CC(C2)CC1C3
inactive: dose: 12.5 mg/kg/injection, schedule: Q04DX003 (ip), vehicle: saline 103 % of control | dose: 25.0 mg/kg/injection, schedule: Q04DX003 (ip), vehicle: saline 100 % of control | dose: 50.0 mg/kg/injection, schedule: Q04DX003 (ip), vehicle: saline 100 % of control

COC(=O)CCCNC(=O)/C=C1/c2cc(OC)c(OC)cc2CCC1S(=O)(=O)OC (centres undefined)
inactive: dose: 100.0 mg/kg/injection, schedule: Q01DX009 (ip), vehicle: saline 104 % of control | dose: 200.0 mg/kg/injection, schedule: Q01DX009 (ip), vehicle: saline 90 % of control | dose: 400.0 mg/kg/injection, schedule: Q01DX009 (ip), vehicle: saline 100 % of control

CCC(=N\NC(=S)NCCN(CC)CC)/C(C)=N/NC(=S)NCCN(CC)CC
inactive: dose: 1.56 mg/kg/injection, schedule: Q01DX009 (ip), vehicle: saline 116 % of control | dose: 3.13 mg/kg/injection, schedule: Q01DX009 (ip), vehicle: saline 105 % of control | dose: 6.25 mg/kg/injection, schedule: Q01DX009 (ip), vehicle: saline 106 % of control | dose: 12.5 mg/kg/injection, schedule: Q01DX009 (ip), vehicle: saline 109 % of control and 118 % of control
